One experiment relates to HCV replicon genotype 1a. Briefly: microbe, parasite or virus in culture. The following applies: genotype 1a replicon cells, incubated 96 hours, NS3/4A ELISA readout. Type of experiment: cell-based. For orientation: A replicon is a self-replicating genome or part of one, used to study replication in cells.
The subject of a further experiment is HCV replicon genotype 1b. Briefly: microbe, parasite or virus in culture. Type of experiment: cell-based. Particulars: genotype 1b replicon cells, incubated 96 hours, NS3/4A ELISA readout.

By IC50 is commonly meant the midpoint of a concentration-inhibition curve.

For the molecule `CNC(=O)c1c(-c2ccc(F)cc2)oc2cc(N3CCCC3=O)c(-c3ccc4c(c3)-c3cc5c(F)cccc5n3CO4)cc12` [Compound 171, 5-(11-fluoro-6H-benzo[5,6][1,3]oxazino[3,4-a]indol-2-yl)-2-(4-fluorophenyl)-N-methyl-6-(2-oxopyrrolidin-1-yl)benzofuran-3-carboxamide], the IC50 in the experiment on HCV replicon genotype 1a (Hepatitis C virus, 96 h) amounted to 12 nM; in the experiment with HCV replicon genotype 1b (Hepatitis C virus, 96 h) it was 4.7 nM.
Regarding `CNC(=O)c1c(-c2ccc(F)cc2)oc2cc(N(C)S(C)(=O)=O)c(-c3ccc4c(n3)-c3cc5c(F)cccc5n3C(COC)O4)cc12` (centres unmarked) [Compound 96], the IC50 was 4.1 nM in the experiment with HCV replicon genotype 1a and 5.1 nM in the experiment on HCV replicon genotype 1b.
As for `Cc1n[nH]c(-c2c(-c3ccc(F)cc3)oc3cc(N(C)S(C)(=O)=O)c(-c4ccc5c(n4)-c4cc6c(F)cccc6n4CO5)cc23)n1` [Compound 161, N-(5-(11-fluoro-6H-pyrido[2′,3′:5,6][1,3]oxazino[3,4-a]indol-2-yl)-2-(4-fluorophenyl)-3-(3-methyl-1H-1,2,4-triazol-5-yl)benzofuran-6-yl)-N-methylmethanesulfonamide], the IC50 with HCV replicon genotype 1a (Hepatitis C virus, 96 h) worked out at 32 nM; in the experiment with HCV replicon genotype 1b (Hepatitis C virus, 96 h) it was 54 nM.
The matching figures for `CNC(=O)c1c(-c2ccc(F)cc2)oc2cc(N(C)S(C)(=O)=O)c(-c3nc4c(cc3C)OCn3c-4cc4c(F)cccc43)cc12` [Compound 32]: 5.7 nM and 19 nM.
The matching figures for `CNC(=O)c1c(-c2ccc(F)cc2)oc2cc(N(C)S(C)(=O)=O)c(-c3ccc4c(c3)-c3nc5ccccn5c3CCO4)cc12` [Compound 145, 5-(6,7-dihydrobenzo[2′,3′]oxepino[4′,5′:4,5]imidazo[1,2-a]pyridin-2-yl)-2-(4-fluorophenyl)-N-methyl-6-(N-methylmethylsulfonamido)benzofuran-3-carboxamide]: 5.3 nM and 2.7 nM.
The like results for `CNC(=O)c1c(-c2ccc(F)cc2)oc2cc(N(C)S(C)(=O)=O)c(-c3ccc4c(n3)-c3c(F)c5ccccc5n3CO4)cc12` [Compound 58, 5-(12-fluoro-6H-pyrido[2′,3′:5,6][1,3]oxazino[3,4-a]indol-2-yl)-2-(4-fluorophenyl)-N-methyl-6-(N-methylmethylsulfonamido)benzofuran-3-carboxamide] were, in that order, 13 nM and 8.7 nM.
Regarding `CNC(=O)c1c(-c2ccc(F)cc2)oc2ccc(-c3ccc4c(n3)-c3cc5c(F)cccc5n3CO4)cc12` [Compound 162, 5-(11-fluoro-6H-pyrido[2′,3′:5,6][1,3]oxazino[3,4-a]indol-2-yl)-2-(4-fluorophenyl)-N-methylbenzofuran-3-carboxamide], the IC50 with HCV replicon genotype 1a (Hepatitis C virus, 96 h) came to 29 nM; in the experiment on HCV replicon genotype 1b (Hepatitis C virus, 96 h), 18 nM.
The matching figures for `CNC(=O)c1c(-c2ccc(F)cc2)oc2cc(N(C)S(C)(=O)=O)c(-c3ccc4c(n3)-c3cc5cccc(F)c5n3CO4)cc12` [Compound 20]: 6.7 nM and 6.9 nM.
On to `CN(c1cc2oc(-c3ccc(F)cc3)c(-c3nnco3)c2cc1-c1ccc2c(n1)-c1cc3c(F)cccc3n1CO2)S(C)(=O)=O` [Compound 159, N-(5-(11-fluoro-6H-pyrido[2′,3′:5,6][1,3]oxazino[3,4-a]indol-2-yl)-2-(4-fluorophenyl)-3-(1,3,4-oxadiazol-2-yl)benzofuran-6-yl)-N-methylmethanesulfonamide], for which the IC50 in the experiment with HCV replicon genotype 1a (Hepatitis C virus, 96 h) was found to be 11 nM; in the experiment with HCV replicon genotype 1b (Hepatitis C virus, 96 h), 22 nM.
The matching figures for `CNC(=O)c1c(-c2ccc(F)cc2)oc2cc(N(CCF)S(C)(=O)=O)c(-c3ccc4c(n3)-c3cc5c(C#N)cccc5n3CO4)cc12` [Compound 191]: 1.7 nM and 2.2 nM.
The matching figures for `CNC(=O)c1c(-c2ccc(F)cc2)oc2cc(N(CCCF)S(C)(=O)=O)c(-c3ccc4c(n3)-c3cc5c(C#N)cccc5n3CO4)cc12` [Compound 194]: 1.9 nM and 2.3 nM.
As for `CNC(=O)c1c(-c2ccc(F)cc2)oc2cc(N(CCF)S(C)(=O)=O)c(-c3ncc4c(n3)-c3cc5c(F)cccc5n3CO4)cc12` [Compound 193], the IC50 amounted to 1.3 nM in the experiment on HCV replicon genotype 1a (Hepatitis C virus, 96 h) and 1.7 nM with HCV replicon genotype 1b (Hepatitis C virus, 96 h).
`CNC(=O)c1c(-c2ccc(F)cc2)oc2cc(N(C)S(C)(=O)=O)c(-c3ccc4c(n3)-c3cc5c(F)cccc5n3C(COC(=O)[C@@H](NC(=O)OC)C(C)C)O4)cc12` (some centres unmarked) [Compound 103]: the IC50 in the experiment with HCV replicon genotype 1a (Hepatitis C virus, 96 h) worked out at 3.3 nM; with HCV replicon genotype 1b (Hepatitis C virus, 96 h), 6.9 nM.
The like results for `CNC(=O)c1c(-c2ccc(F)cc2)oc2cc(N(C)S(C)(=O)=O)c(-c3ccc4c(n3)-c3cc5c(C(N)=O)cccc5n3CO4)cc12` [Compound 73, 2-(2-(4-fluorophenyl)-3-(methylcarbamoyl)-6-(N-methylmethylsulfonamido)benzofuran-5-yl)-6H-pyrido[2′,3′:5,6][1,3]oxazino[3,4-a]indole-11-carboxamide] were, in that order, 625 nM and 36 nM.
The matching figures for `CNC(=O)c1c(-c2ccc(F)cc2)oc2cc(N3CCCC3=O)c(-c3ccc4c(n3)-c3cc5cc(F)ccc5n3CO4)cc12` [Compound 169]: 14 nM and 5 nM.
`CNC(=O)c1c(-c2ccc(F)cc2)oc2cc(N(CCF)S(C)(=O)=O)c(-c3ccc4c(n3)-c3cc5c(F)cccc5n3CO4)cc12` [Compound 190]: the IC50 is 2.8 nM in the experiment on HCV replicon genotype 1a (Hepatitis C virus, 96 h) and 3.8 nM with HCV replicon genotype 1b (Hepatitis C virus, 96 h).
The like results for `CNC(=O)c1c(-c2ccc(F)cc2)oc2cc(N(C)S(C)(=O)=O)c(-c3ccc4c(n3)-c3cc5ccc(Cl)cc5n3CO4)cc12` [Compound 15] were, in that order, 9.1 nM and 9.9 nM.
The matching figures for `CNC(=O)c1c(-c2ccc(F)cc2)oc2cc(N(C)S(C)(=O)=O)c(-c3ccc4c(c3)-c3nc5ccc(F)cn5c3CO4)cc12` [Compound 143]: 15 nM and 8 nM.
The matching figures for `CNC(=O)c1c(-c2ccc(F)cc2)oc2cc(N3CCNC3=O)c(-c3ccc4c(n3)-c3cc5c(F)cccc5n3CO4)cc12` [Compound 177, 5-(11-fluoro-6H-pyrido[2′,3′:5,6][1,3]oxazino[3,4-a]indol-2-yl)-2-(4-fluorophenyl)-N-methyl-6-(2-oxoimidazohdin-1-yl)benzofuran-3-carboxamide]: 4.6 nM and 4 nM.
For the molecule `CNC(=O)c1c(-c2ccc(F)cc2)oc2cc(N(Cc3ccc(B(O)O)cc3)S(C)(=O)=O)c(-c3ccc4c(n3)-c3cc5c(F)cccc5n3CO4)cc12` [Compound 205, (4-((N-(5-(11-fluoro-6H-pyrido[2′,3′:5,6][1,3]oxazino[3,4-a]indol-2-yl)-2-(4-fluorophenyl)-3-(methylcarbamoyl)benzofuran-6-yl)methylsulfonamido)methyl)phenyl) boronic acid], the IC50 in the experiment on HCV replicon genotype 1a (Hepatitis C virus, 96 h) is 14 nM; in the experiment with HCV replicon genotype 1b (Hepatitis C virus, 96 h) it was 15 nM.
The like results for `CNC(=O)c1c(-c2ccc(F)cc2)oc2cc(N(C)S(C)(=O)=O)c(-c3ccc4c(n3)-c3[nH]c5cccc(F)c5c3C(c3cccs3)O4)cc12` (centres unmarked) [Compound 66, 5-(7-fluoro-6-(thiophen-2-yl)-6,11-dihydropyrido[2′,3′:5,6]pyrano[4,3-b]indol-2-yl)-2-(4-fluorophenyl)-N-methyl-6-(N-methylmethylsulfonamido)benzofuran-3-carboxamide] were, in that order, 49 nM and 59 nM.
The like results for `CNC(=O)c1c(-c2ccc(F)cc2)oc2cc(N(C)S(C)(=O)=O)c(-c3ccc4c(c3)-c3cc5cccnc5n3CO4)cc12` [Compound 49] were, in that order, 0.6 nM and 1.7 nM.
For `CNC(=O)c1c(-c2ccc(F)cc2)oc2cc(N(C)S(C)(=O)=O)c(-c3ccc4c(n3)-c3cc5c(F)cccc5n3C(COC)O4)cc12` (centres unmarked) [Compound 95], the IC50 with HCV replicon genotype 1a (Hepatitis C virus, 96 h) worked out at 3.2 nM; in the experiment on HCV replicon genotype 1b (Hepatitis C virus, 96 h) it was 5.3 nM.
The matching figures for `CNC(=O)c1c(-c2ccc(F)cc2)oc2cc(N(C)S(C)(=O)=O)c(-c3ccc4c(n3)-c3cc5c(F)cccc5n3C(CNC(C)C(=O)O)O4)cc12` (centres unmarked) [Compound 117]: 74 nM and 7.5 nM.
Consider `CNC(=O)c1c(-c2ccc(F)cc2)oc2cc(N(C)S(C)(=O)=O)c(-c3ccc4c(n3)-c3cc5c(F)cccc5n3C(C(=O)NC)O4)cc12` (centres unmarked) [Compound 110], for which the IC50 in the experiment on HCV replicon genotype 1a is 3 nM; in the experiment on HCV replicon genotype 1b, 4.8 nM.
In the case of `CNC(=O)c1c(-c2ccc(F)cc2)oc2cc(N(CC(F)F)S(C)(=O)=O)c(-c3ccc4c(n3)-c3cc5ccccc5n3CO4)cc12` [Compound 185], the IC50 was determined as 7.9 nM in the experiment with HCV replicon genotype 1a (Hepatitis C virus, 96 h) and 16 nM in the experiment on HCV replicon genotype 1b (Hepatitis C virus, 96 h).
The matching figures for `CNC(=O)c1c(-c2ccc(F)cc2)oc2cc(N(C)S(C)(=O)=O)c(-c3ccc4c(n3)-c3cc5nc(OC)ccc5n3CO4)cc12` [Compound 45, 2-(4-fluorophenyl)-5-(10-methoxy-6H-pyrido[2,3-e]pyrido[2′,3′:4,5]pyrrolo[1,2-c][1,3]oxazin-2-yl)-N-methyl-6-(N-methylmethylsulfonamido)benzofuran-3-carboxamide]: 9.2 nM and 11 nM.
The like results for `CNC(=O)c1c(-c2ccc(F)cc2)oc2cc(N(C)S(C)(=O)=O)c(-c3ccc4c(n3)-c3cc5c(C#N)cccc5n3CO4)cc12` [Compound 12] were, in that order, 1.6 nM and 1.7 nM.
As for `CNC(=O)c1c(-c2ccc(F)cc2)oc2cc(N(C)S(C)(=O)=O)c(-c3cc4c(cn3)OCn3c-4cc4ccccc43)cc12` [Compound 11], the IC50 in the experiment on HCV replicon genotype 1a (Hepatitis C virus, 96 h) stood at 2.1 nM; in the experiment with HCV replicon genotype 1b (Hepatitis C virus, 96 h), 1.8 nM.
`CNC(=O)c1c(-c2ccc(F)cc2)oc2cc(N(C)S(C)(=O)=O)c(-c3ccc4c(n3)-c3cc5c(F)cccc5n3C(C(N)=O)O4)cc12` (centres unmarked) [Compound 106, 11-fluoro-2-(2-(4-fluorophenyl)-3-(methylcarbamoyl)-6-(N-methylmethylsulfonamido)benzofuran-5-yl)-6H-pyrido[2′,3′:5,6][1,3]oxazino[3,4-a]indole-6-carboxamide]: the IC50 in the experiment with HCV replicon genotype 1a was determined as 5.5 nM; in the experiment with HCV replicon genotype 1b, 2.4 nM.
Take `CNC(=O)c1c(-c2ccc(F)cc2)oc2cc(N(C)S(C)(=O)=O)c(-c3ccc4c(n3)-c3cc5c(F)cccc5n3C(C)(CO)O4)cc12` (centres unmarked) [Compound 91]: the IC50 in the experiment with HCV replicon genotype 1a (Hepatitis C virus, 96 h) came to 3.3 nM; in the experiment on HCV replicon genotype 1b (Hepatitis C virus, 96 h), 7.4 nM.

(Values after patent US9265773B2, “Tetracyclic heterocycle compounds and methods of use thereof for the treatment of viral diseases” (priority 2011, dated 2016).)
